From US10954287B2, “Ras binding peptides and methods of use” (Ra Pharmaceuticals, Inc., priority 2016, dated 2021) come the findings set out here.

In general, IC50 refers to the concentration that inhibits the measured activity by half.

*1 amine or outer side, *2 acyl side, *3 side chain or, on linkers, in order; H or OH if unused. [ ]: non-standard residue; d: D form. ξ: configuration not given here. DAPTZAC2 = (S)-3-(4-(2-acrylamidoethyl)-1H-1,2,3-triazol-1-yl)-2-aminopropanoic acid, C=CC(=O)NCCc1cn(C[C@H](N[*:1])C(=O)[*:2])nn1; Trp(7-aza) = N[C@@H](Cc1c[nH]c2ncccc12)C(=O)O; NMePhe(4-F) = CN[C@@H](Cc1ccc(F)cc1)C(=O)O; Tle = CC(C)(C)[C@H](N)C(=O)O; ξPhg = NC(C(=O)O)c1ccccc1; NMeA = CN[C@@H](C)C(=O)O; Nva = CCC[C@H](N)C(=O)O; Sar = CNCC(=O)O

In the assay the test system is GMPPNP-loaded H-Ras or GTP-loaded K-Ras. The experiment in a line: Fluorescence polarization competition assay with TAMRA-labeled probe R4007. Type of assay: binding, human. The following applies: 120 nM Ras, 30 nM probe R4007, 60 minutes at room temperature; read-out: Probe displacement (nM IC50). The procedure:
R4000 was evaluated for competition with a TAMRA labeled probe (R4007) based on peptide R4000. The assay was performed in 384-well black, non-binding plates (Greiner Bio-One, Monroe, N.C.). GMPPNP-loaded H-Ras or GTP-loaded K-Ras, diluted in FP assay buffer (20 mM Tris-HCl, pH 7.5, 50 mM NaCl, 5 mM MgCl2, 1 mM EDTA, 0.002% Triton-X-100) for a final concentration of 120 nM was incubated with 30 nM R4007 for 20 minutes at room temperature. R4000 was serially diluted, added to the assay and incubated for 60 minutes at room temperature. Fluorescence polarization was detected with a SpectraMax Paradigm plate reader (Molecular Devices, Sunnyvale, Calif.) using the Rhodamine FP detection cartridge (535 nm/595 nm). Data was analyzed using GraphPad Prism and Ki determined using One Site Ki Curve fitting model.
Peptides were evaluated for competition with R4007, a probe consisting of TAMRA-labeled R4000, using a fluorescence polarization (FP) competition assay. The assay was performed in 384-well black, non-binding plates (Greiner Bio-One, Monroe, N.C.). GMPPNP-loaded H-Ras or GTP- loaded K-Ras, diluted in FP assay buffer (20 mM Tris-HCl, pH 7.5, 50 mM NaCl, 5 mM MgCl2, 1 mM EDTA, 0.002% Triton-X-100) for a final concentration of 120 nM was incubated with 30 nM probe for 20 minutes at room temperature. Peptides were serially diluted, added to the assay and incubated for 60 minutes at room temperature. Fluorescence was detected with a SpectraMax Paradigm plate reader (Molecular Devices, Sunnyvale, Calif.) using the Rhodamine FP detection cartridge (535 nm/595 nm). Data was analyzed and Ki determined using a One Site Ki Curve fitting model. Percent inhibition for each data point was calculated relative to the maximal binding in test compound-free control wells (showing no probe displacement) and Ras-free control wells (showing no probe binding) and the half-maximal inhibitory concentration (IC50), based on probe displacement, was determined.
(In general: Polarisation of emitted light reports the rotation of a fluorescent probe.)
`CCC[C@H](NC(C)=O)C(=O)N[C@H]1CSCc2cccc(c2)CSC[C@@H](C(=O)NCC(=O)NCC(=O)NCC(=O)N[C@@H](CS)C(=O)N[C@@H](C)C(=O)N[C@H](C(=O)N[C@@H](CC(C)C)C(N)=O)[C@@H](C)CC)NC(=O)CN(C)C(=O)[C@H](Cc2ccc(F)cc2)N(C)C(=O)[C@H](Cc2ccc(O)cc2)NC(=O)[C@H](Cc2c[nH]c3ncccc23)NC(=O)[C@H](c2ccccc2)NC(=O)[C@H](C)N(C)C(=O)[C@H](Cc2c[nH]cn2)NC(=O)[C@H](CCCCN)NC(=O)[C@H](C(C)(C)C)NC(=O)[C@H](Cc2ccc(O)cc2)NC1=O` (relative stereo) [Compound R4120, ACE-NVA-CYS*-TYR-TBG-LYS-HIS-NMA-PHG-S7AW-TYR-MFF-AR-CYS*-GLY-GLY-GLY-CYS-ALA-ILE-LEU-NH2]: the IC50 is 65.7 nM.

As to `CCC[C@H](NC(C)=O)C(=O)N[C@H]1CSCc2cccc(c2)CSC[C@@H](C(N)=O)NC(=O)CN(C)C(=O)[C@H](Cc2ccc(F)cc2)N(C)C(=O)[C@H](Cc2ccc(O)cc2)NC(=O)[C@H](Cc2c[nH]c3ncccc23)NC(=O)[C@H](C2CCCCC2)NC(=O)[C@H](C)N(C)C(=O)[C@H](Cc2c[nH]cn2)NC(=O)[C@H](CCCCN)NC(=O)[C@H](C(C)(C)C)NC(=O)[C@H](Cc2ccc(O)cc2)NC1=O` (relative stereo) [Compound R4149, ACE-NVA-CYS*-TYR-TBG-LYS-HIS-NMA-CHG-7AW-TYR-MFF-SAR-CYS*-NH2], the IC50 was determined as 6260 nM.

For `CCC[C@H](NC(C)=O)C(=O)N[C@H]1CSCc2cccc(c2)CSC[C@@H](C(N)=O)NC(=O)CN(C)C(=O)[C@H](Cc2ccc(F)cc2)N(C)C(=O)[C@H](Cc2ccc(O)cc2)NC(=O)[C@H](Cc2c[nH]c3ccccc23)NC(=O)[C@H](c2ccccc2)NC(=O)[C@H](C)N(C)C(=O)[C@H](Cc2c[nH]cn2)NC(=O)[C@H](CCCCN)NC(=O)[C@H](C(C)(C)C)NC(=O)[C@H](Cc2ccc(O)cc2)NC1=O` (relative stereo) [Compound R4115, ACE-NVA-CYS*-TYR-TBG-LYS-HIS-NMA-PHG-TRP-TYR-MFF-SAR-CYS*-NH2], the IC50 was 34.1 nM.

“ACE-NVA-SER-TYR-TBG-ALA-DAPTZAC2-NMA-RPHG-7AW-TYR-MFF-SAR-SER-NH2 (Ac-[Nva]SY[Tle]A[DAPTZAC2][NMeA][ξPhg][Trp(7-aza)]Y[NMePhe(4-F)][Sar]S-NH2) [Compound R4151, linear]”: the IC50 was determined as 12200 nM.

`CCC[C@H](NC(C)=O)C(=O)N[C@H]1CSCc2cccc(c2)CSC[C@@H](C(N)=O)NC(=O)CN(C)C(=O)[C@H](Cc2ccc(F)cc2)N(C)C(=O)[C@H](Cc2ccc(O)cc2)NC(=O)[C@H](Cc2c[nH]c3ncccc23)NC(=O)[C@H](c2ccccc2)NC(=O)[C@H](C)N(C)C(=O)[C@H](Cc2c[nH]cn2)NC(=O)[C@H](CCCCNC(=O)c2ccc(N(C)C)cc2)NC(=O)[C@H](C(C)(C)C)NC(=O)[C@H](Cc2ccc(O)cc2)NC1=O` (relative stereo) [Compound R4134, ACE-NVA-CYS*-TYR-TBG-DMABZK1-HIS-NMA-PHG-7AW-TYR-MFF-SAR-CYS*-NH2]: the IC50 was found to be 346 nM.

Consider `CCC[C@H](NC(C)=O)C(=O)N[C@H]1CSCc2cccc(c2)CSC[C@@H](C(=O)N[C@H](CO)C(=O)N[C@@H](CCCCN)C(=O)NCC(=O)N[C@@H](CS)C(=O)N[C@H](C(=O)N[C@H](C(=O)N[C@@H](CCSC)C(=O)O)[C@@H](C)CC)C(C)C)NC(=O)CN(C)C(=O)[C@H](Cc2ccc(F)cc2)N(C)C(=O)[C@H](Cc2ccc(O)cc2)NC(=O)[C@H](Cc2c[nH]c3ncccc23)NC(=O)[C@H](c2ccccc2)NC(=O)[C@H](C)N(C)C(=O)[C@H](Cc2c[nH]cn2)NC(=O)[C@H](CCCCN)NC(=O)[C@H](C(C)(C)C)NC(=O)[C@H](Cc2ccc(O)cc2)NC1=O` (relative stereo) [Compound R4105, ACE-NVA-CYS*-TYR-TBG-LYS-HIS-NMA-PHG-7AW-TYR-MFF-SAR-CYS*-DSER-LYS-GLY-CYS-VAL-ILE-MET], for which the IC50 is 3.31 nM.

Take `CCC[C@H](NC(C)=O)C(=O)N[C@H]1CSCc2cccc(c2)CSC[C@@H](C(=O)NCC(=O)N[C@@H](CS)C(=O)N[C@@H](CCSC)C(=O)N[C@@H](CO)C(=O)N[C@@H](CS)C(=O)N[C@@H](CCCCN)C(=O)N[C@@H](CS)C(=O)N[C@H](C(=O)N[C@@H](CC(C)C)C(=O)N[C@@H](CO)C(N)=O)C(C)C)NC(=O)CN(C)C(=O)[C@H](Cc2ccc(F)cc2)N(C)C(=O)[C@H](Cc2ccc(O)cc2)NC(=O)[C@H](Cc2c[nH]c3ncccc23)NC(=O)[C@H](c2ccccc2)NC(=O)[C@H](C)N(C)C(=O)[C@H](Cc2c[nH]cn2)NC(=O)[C@H](CCCCN)NC(=O)[C@H](C(C)(C)C)NC(=O)[C@H](Cc2ccc(O)cc2)NC1=O` (relative stereo) [Compound R4116, ACE-NVA-CYS*-TYR-TBG-LYS-HIS-NMA-PHG-7AW-TYR-MFF-SAR-CYS*-GLY-CYS-MET-SER-CYS-LYS-CYS-VAL-LEU-SER-NH2]: the IC50 came to 35.7 nM.

`C=CC(=O)NCC[C@@H]1NC(=O)[C@H](C)NC(=O)[C@H](C(C)(C)C)NC(=O)[C@H](Cc2ccc(O)cc2)NC(=O)[C@@H](NC(=O)[C@H](CCC)NC(C)=O)CSCc2cccc(c2)CSC[C@@H](C(N)=O)NC(=O)CN(C)C(=O)[C@H](Cc2ccc(F)cc2)N(C)C(=O)[C@H](Cc2ccc(O)cc2)NC(=O)[C@H](Cc2c[nH]c3ncccc23)NC(=O)[C@H](c2ccccc2)NC(=O)[C@H](C)N(C)C1=O` (relative stereo) [Compound R4146, ACE-NVA-CYS*-TYR-TBG-ALA-DABAC1-NMA-PHG-7AW-TYR-MFF-SAR-CYS*-NH2]: the IC50 came out at 3390 nM.

As for `C[C@H]1C(=O)N[C@@H](c2ccccc2)C(=O)N[C@@H](Cc2c[nH]c3ncccc23)C(=O)N[C@@H](Cc2ccc(O)cc2)C(=O)N(C)[C@@H](Cc2ccc(F)cc2)C(=O)N(C)CC(=O)NCCOCCOCCC(=O)N[C@@H](Cc2ccc(O)cc2)C(=O)N[C@@H](C(C)(C)C)C(=O)N[C@@H](CCCCN)C(=O)N[C@@H](Cc2c[nH]cn2)C(=O)N1C` (relative stereo) [Compound R4124, PEG2PA*-TYR-TBG-LYS-HIS-NMA-PHG-7AW-TYR-MFF-SAR*], the IC50 amounted to 88.4 nM.

As to `CCC[C@H](NC(C)=O)C(=O)N[C@H]1CSCc2cccc(c2)CSC[C@@H](C(N)=O)NC(=O)CN(C)C(=O)[C@H](Cc2ccc(F)cc2)N(C)C(=O)[C@H](Cc2ccc(O)cc2)NC(=O)[C@H](Cc2c[nH]c3ncccc23)NC(=O)[C@H](c2ccccc2)NC(=O)[C@H](C)N(C)C(=O)[C@H](C)NC(=O)[C@H](CCCCN)NC(=O)[C@H](C(C)(C)C)NC(=O)[C@H](Cc2ccc(O)cc2)NC1=O` (relative stereo) [Compound R4126, ACE-NVA-CYS*-TYR-TBG-LYS-ALA-NMA-PHG-7AW-TYR-MFF-SAR-CYS*-NH2], the IC50 is 127 nM.

Consider `CCC[C@H](NC(=O)CCCC(=O)O)C(=O)N[C@H]1CSCc2cccc(c2)CSC[C@@H](C(N)=O)NC(=O)CN(C)C(=O)[C@H](Cc2ccc(F)cc2)N(C)C(=O)[C@H](Cc2ccc(O)cc2)NC(=O)[C@H](Cc2c[nH]c3ncccc23)NC(=O)[C@H](c2ccccc2)NC(=O)[C@H](C)N(C)C(=O)[C@H](Cc2c[nH]cn2)NC(=O)[C@H](CCCCNC(CC(C)C)=C2C(=O)CC(C)(C)CC2=O)NC(=O)[C@H](C(C)(C)C)NC(=O)[C@H](Cc2ccc(O)cc2)NC1=O` (relative stereo) [Compound R4138, GLA-NVA-CYS*-TYR-TBG-LYS-(DDE)-HIS-NMA-PHG-7AW-TYR-MFF-SAR-CYS*-NH2], for which the IC50 stood at 461 nM.

As for `C=CC(=O)NCCCC[C@@H]1NC(=O)[C@H](C)NC(=O)[C@H](C(C)(C)C)NC(=O)[C@H](Cc2ccc(O)cc2)NC(=O)[C@@H](NC(=O)[C@H](CCC)NC(C)=O)CSCc2cccc(c2)CSC[C@@H](C(N)=O)NC(=O)CN(C)C(=O)[C@H](Cc2ccc(F)cc2)N(C)C(=O)[C@H](Cc2ccc(O)cc2)NC(=O)[C@H](Cc2c[nH]c3ncccc23)NC(=O)[C@H](c2ccccc2)NC(=O)[C@H](C)N(C)C1=O` (relative stereo) [Compound R4123, ACE-NVA-CYS*-TYR-TBG-ALA-KAC-NMA-PHG-7AW-TYR-MFF-SAR-CYS*-NH2], the IC50 worked out at 85 nM.

Regarding `C#CC[C@@H]1NC(=O)CN(C)C(=O)[C@H](Cc2ccc(F)cc2)N(C)C(=O)[C@H](Cc2ccc(O)cc2)NC(=O)[C@H](Cc2c[nH]c3ncccc23)NC(=O)[C@H](c2ccccc2)NC(=O)[C@H](C)N(C)C(=O)[C@H](Cc2c[nH]cn2)NC(=O)[C@H](CCCCN)NC(=O)[C@H](C(C)(C)C)NC(=O)[C@H](Cc2ccc(O)cc2)NC1=O` (relative stereo) [Compound R4145, TYR*-TBG-LYS-HIS-NMA-PHG-7AW-TYR-MFF-SAR-PRG*], the IC50 stood at 2800 nM.
